Data on 23 molecules can be found in patent publication US11248006B2, “Macrocyclic derivative of pyrazol[3,4-d]pyrimidin-3-one, pharmaceutical composition and use thereof” (SHANGHAI DE NOVO PHARMATECH CO., LTD., priority 2017, dated 2022).

Assay [1] has as its target T1, Wee1 (Homo sapiens (Human), UniProt P30291). The experiment in a line: Wee1 enzyme catalysis assay (ATP-Glo Max kinase luminescence detection kit). Type of assay: biochemical. The note with it: Wee1 enzymatic activity, 10 μM ATP, Poly (Lys, Tyr) substrate, 30° C. for 50 minutes. The protocol:
In the present disclosure, Wee1 enzyme catalysis assay was carried out using the ATP-Glo Max kinase luminescence detection kit (Promega). Kinase activity was assessed by quantitative detection of the amount of ATP retained in the solution following the kinase reaction. The luminescent signal in the assay is proportional to the amount of ATP and inversely proportional to the kinase activity. The concentration of the compound in the assay ranged from 0.5 nM to 30 μM. The compound was dissolved in 10% DMSO, and 5 μL of the solution was added to 50 μL of the reaction, and the concentration of DMSO in the final reaction was 1%. The reaction was carried out at 30° C. for 50 minutes. 40 mM trishydroxymetyl aminomethane, pH 7.4, 10 mM MgCl2, 0.1 mg/ml BSA, 2 mM DTT, 0.1 mg/ml Poly (Lys, Tyr) substrate, 10 μM ATP and Wee1 were contained in the reaction mixture. After the enzymatic reaction, 50 μL of ATP-Glo Max kinase luminescence detection assay solution (Promega) was added and incubated for 15 minutes at room temperature. The luminescent signal was measured using a microplate reader. In some assays, a known Wee1 inhibitor was added as a positive control. Luminance data was analyzed using Graphpad software. The difference between the luminescence intensity in the absence of Wee1 and the luminescence intensity in the presence of Wee1 was defined as 100% activity (Lut−Luc). Using the luminescence intensity signal (Lu) in the presence of the compound, the % activity was calculated as follows: % Activity={(Lut−Lu)/(Lut−Luc)}×100%, wherein, Lu=luminous intensity of the compound Non-linear regression analysis was employed to plot the dose-effect curve of % activity value and the corresponding concentrations for the series of compounds. The equation is Y=B+(TB)/1+10((Log EC50−X)×Hill Slope), Y=% activity, B=minimum activity percentage, T=maximum activity percentage, X=logarithm of compound and Hill slope=slope factor or Hill coefficient. The IC50 value was determined by the concentration of a compound that is required to obtain 50% of the maximum effect.

Assay [2] concerns Human osteosarcoma cell line MG63. Description: Cell proliferation assay (CCK-8 cell viability). In kind it is cell-based. The note with it: CCK-8, 72 hours incubation. As for the experimental part:
In the present disclosure, cell assays were used to assess the biological activity of the compound. Human osteosarcoma cell line MG63 (ATCC CRL-1427) was cultured in a 96-well plate of Dulbecco's Modified Eagle's medium, supplemented with 10% fetal bovine serum and 1% (v/v) L-glutamine, and the cultivation environment was 37° C. and 5% CO2. Compound concentrations ranged from 4.5 nM to 30 μM. The Wee1 inhibitor stock solution was dissolved in DMSO, added to the medium with an indicated concentration and incubated for 72 hours. Negative control cells were only treated with vehicle. In some assays, a known Wee1 inhibitor was added as a positive control. Cell viability was measured using a Cell Counting Kit-8 (CCK-8, Sigma-Aldrich) under the instruction of the product specification. The data was analyzed using Graphpad software to obtain a fitted curve of IC50 values against the compounds.

The target in assay [3] is T1, Wee1. Description: Cell activity of Wee1 by p-CDK1Y15 ELISA assay in WiDr cells. The note with it: amount of p-CDK1Y15, human colon adenocarcinoma cell line WiDr, 24 hours incubation. In kind it is cell-based. The protocol: In the present disclosure, cellular assays were used to assess the biological activity of the compound. This assay was conducted using the human colon adenocarcinoma cell line WiDr. The activity of a specific Wee1 inhibitor was evaluated using p-CDK1Y15 ELISA assay method. The detailed assay method is described as follows:
WiDr cells were cultured in Dulbecco's Modified Eagle's medium containing 10% FBS at 37° C. and 5% CO2. Compound concentrations ranged from 0.5 nM to 30 μM. The compound was diluted, added to a 24-well plate and incubated with the cells for 24 hours. DMSO was used as a negative control. A known Wee1 inhibitor was added as a positive control in some assays. According to the instruction of the manufacturer, in the p-CDK1Y15 assay, cells were lysed and tested by a colorimetric ELISA kit to determine the amount of p-CDK1Y15. The optical density was measured using a spectrophotometer. The OD data was analyzed using Graphpad software to obtain a fitted curve of IC50 values against the compounds.
(In general: In an ELISA, binding on a coated surface is turned into a signal by an enzyme label.)

T1 sequence (P30291 whole entry): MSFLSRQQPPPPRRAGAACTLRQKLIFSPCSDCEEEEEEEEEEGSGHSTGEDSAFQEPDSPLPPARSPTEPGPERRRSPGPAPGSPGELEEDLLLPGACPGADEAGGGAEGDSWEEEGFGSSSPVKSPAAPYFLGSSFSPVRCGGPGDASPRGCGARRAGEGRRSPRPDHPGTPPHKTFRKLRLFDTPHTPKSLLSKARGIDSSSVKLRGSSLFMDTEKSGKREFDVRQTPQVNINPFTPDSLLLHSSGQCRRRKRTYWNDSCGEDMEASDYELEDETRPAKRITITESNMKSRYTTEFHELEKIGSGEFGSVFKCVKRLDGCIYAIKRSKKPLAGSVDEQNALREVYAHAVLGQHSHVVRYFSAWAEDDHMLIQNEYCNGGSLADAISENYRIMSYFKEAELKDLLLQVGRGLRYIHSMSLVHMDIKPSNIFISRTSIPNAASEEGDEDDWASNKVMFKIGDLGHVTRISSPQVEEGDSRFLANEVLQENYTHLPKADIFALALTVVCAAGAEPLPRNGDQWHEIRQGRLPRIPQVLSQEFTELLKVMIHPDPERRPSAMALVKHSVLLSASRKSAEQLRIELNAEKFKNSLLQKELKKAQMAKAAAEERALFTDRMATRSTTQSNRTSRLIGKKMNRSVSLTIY

Consider `CN1Cc2cc(Nc3ncc4c(=O)n5n(c4n3)-c3cccc(n3)OCC/C=C\C5)ccc2C2(CC2)C1` [Compound 1-2-1], for which the concentration for half-maximal inhibition (IC50) is 5.4 nM against Wee1 [1] and 593 nM in assay [2] (Homo sapiens, MG-63, 72 h).
In the same order, the values of `CC(=O)N1CCC/C=C\Cn2c(=O)c3cnc(Nc4ccc5c(c4)CN(C)CC54CC4)nc3n2-c2cccc1n2` [Compound 2-2-1] are 3.7 nM and 439 nM.
Take `C=CCCCCN1C(=O)COc2ccc(-n3c4nc(SC)ncc4c(=O)n3CC=C)nc21` [Compound 3-1-1]: the IC50 against Wee1 [1] was determined as 4.9 nM; on Wee1 [3], 336 nM; in assay [2], 1150 nM.
In the same order, the values of `CN1Cc2cc(Nc3ncc4c(=O)n5n(c4n3)-c3ccc4c(n3)N(CCC/C=C\C5)C(=O)CO4)ccc2C2(CC2)C1` [Compound 3-2-2] are 11 nM, 139 nM and 261 nM.
Regarding `CN1Cc2cc(Nc3ncc4c(=O)n5n(c4n3)-c3ccc4c(n3)N(CC/C=C\C5)C(=O)CO4)ccc2C2(CC2)C1` [Compound 3-2-3], the IC50 turned out to be 7.6 nM against Wee1 [1] and 326 nM against Wee1 [3].
As to `CN1CCN(c2ccc(Nc3ncc4c(=O)n5n(c4n3)-c3ccc4c(n3)N(CCC/C=C\C5)C(=O)CO4)cc2CO)CC1` [Compound 3-3-1], the half-maximal inhibitory concentration (IC50) worked out at 5.5 nM on Wee1 [1] and 295 nM in assay [2].
Consider `COc1cc(Nc2ncc3c(=O)n4n(c3n2)-c2ccc3c(n2)N(CCC/C=C\C4)C(=O)CO3)ccc1N1CCN(C)CC1` [Compound 3-3-2], for which the half-maximal inhibitory concentration (IC50) was determined as 3.3 nM on Wee1 [1]; 114 nM on Wee1 [3]; 567 nM in assay [2] (Homo sapiens, MG-63, 72 h).
In the same order, the values of `CN1CCN(c2ccc(Nc3ncc4c(=O)n5n(c4n3)-c3ccc4c(n3)N(CCC/C=C\C5)C(=O)CO4)cc2)CC1` [Compound 3-3-7] are 13 nM, 250 nM and 571 nM.
Turning to `COc1cc(Nc2ncc3c(=O)n4n(c3n2)-c2ccc3c(n2)N(CCC/C=C\C4)C(=O)CO3)cc(N2CCN(C)CC2)c1` [Compound 3-3-13], the 50% inhibitory concentration (IC50) is 68.8 nM against Wee1 [3] and 82 nM in assay [2] (Homo sapiens, MG-63, 72 h).
With `CN1Cc2cc(Nc3ncc4c(=O)n5n(c4n3)-c3ccc4c(n3)N(CCC/C=C\C5)C(=O)CO4)ccc2C(C)(C)C1` [Compound 3-5-1], the half-inhibitory concentration (IC50) against Wee1 [1] was 2.4 nM; in assay [2] (Homo sapiens, MG-63, 72 h), 232 nM.
`CC(C)(C)OC(=O)N1Cc2cc(Nc3ncc4c(=O)n5n(c4n3)-c3ccc4c(n3)N(CCC/C=C\C5)C(=O)CO4)ccc2C(C)(C)C1` [Compound 3-5-2]: the figures for the IC50 (on Wee1 [1]; in assay [2]) were 6.1 nM and 327 nM, respectively.
`CC(C)(C)OC(=O)N1CCC(n2ccc3cc(Nc4ncc5c(=O)n6n(c5n4)-c4ccc5c(n4)N(CCC/C=C\C6)C(=O)CO5)ccc32)CC1` [Compound 3-7-3]: the IC50 against Wee1 [1] worked out at 9.5 nM; at Wee1 [3], 80.6 nM; in assay [2], 222 nM.
For the molecule `CN1CCC(n2ccc3cc(Nc4ncc5c(=O)n6n(c5n4)-c4ccc5c(n4)N(CCC/C=C\C6)C(=O)CO5)ccc32)CC1` [Compound 3-7-5], the IC50 on Wee1 [1] stood at 3.9 nM; on Wee1 [3], 38.8 nM; in assay [2] (Homo sapiens, MG-63, 72 h), 60.4 nM.
With `CN1CCC(n2ccc3cc(Nc4ncc5c(=O)n6n(c5n4)-c4ccc5c(n4)N(CCC/C=C\C6)C(=O)CO5)ccc32)C1` (centres unmarked) [Compound 3-7-6], the IC50 was 9.6 nM at Wee1 [1] and 554 nM in assay [2] (Homo sapiens, MG-63, 72 h).
For the molecule `CC(C)N1CCC(n2ccc3cc(Nc4ncc5c(=O)n6n(c5n4)-c4ccc5c(n4)N(CCC/C=C\C6)C(=O)CO5)ccc32)CC1` [Compound 3-7-7], the results for the half-inhibitory concentration (IC50) (against Wee1 [1]; at Wee1 [3]; in assay [2]) were 6.6 nM, 51.4 nM and 44.3 nM, respectively.
For `CN1CCn2c(cc3cc(Nc4ncc5c(=O)n6n(c5n4)-c4ccc5c(n4)N(CCC/C=C\C6)C(=O)CO5)ccc32)C1` [Compound 3-7-8], the IC50 on Wee1 [1] is 12.3 nM; in assay [2] (Homo sapiens, MG-63, 72 h), 654 nM.
In the same order, the values of `CS(=O)(=O)CCN1CCC(n2ccc3cc(Nc4ncc5c(=O)n6n(c5n4)-c4ccc5c(n4)N(CCC/C=C\C6)C(=O)CO5)ccc32)CC1` [Compound 3-7-9] are 9.2 nM and 193 nM.
Take `O=C1COc2ccc3nc2N1CCC/C=C\Cn1c(=O)c2cnc(Nc4ccc5c(ccn5C5CCN(CCO)CC5)c4)nc2n1-3` [Compound 3-7-10]: the IC50 on Wee1 [1] turned out to be 8.5 nM; in assay [2] (Homo sapiens, MG-63, 72 h), 56.4 nM.
As for `CN1CCC(c2c[nH]c3cc(Nc4ncc5c(=O)n6n(c5n4)-c4ccc5c(n4)N(CCC/C=C\C6)C(=O)CO5)ccc23)CC1` [Compound 3-7-13], the IC50 turned out to be 114 nM at Wee1 [3] and 150 nM in assay [2] (Homo sapiens, MG-63, 72 h).
As for `CC(C)N1CCC(n2ccc3cc(Nc4ncc5c(=O)n6n(c5n4)-c4ccc5c(n4)N(CCC/C=C\C6)C(=O)CO5)ccc32)CC1` [Compound 3-7-15], the results for the IC50 (at Wee1 [1]; in assay [2]) were 7.9 nM and 211 nM, respectively.
On to `CN1CCN(c2cc(Nc3ncc4c(=O)n5n(c4n3)-c3ccc4c(n3)N(CCC/C=C\C5)C(=O)CO4)cc3c2ccn3C)CC1` [Compound 3-7-16], for which the IC50 on Wee1 [3] was found to be 31.4 nM; in assay [2] (Homo sapiens, MG-63, 72 h), 99.1 nM.
For the molecule `CN1Cc2cc(Nc3ncc4c(=O)n5n(c4n3)-c3ccc4c(n3)N(CCO4)C(=O)CC/C=C\C5)ccc2C2(CC2)C1` [Compound 8-1-2], the IC50 came out at 4.4 nM against Wee1 [1] and 323 nM in assay [2] (Homo sapiens, MG-63, 72 h).
With `C=CCn1c(=O)c2cnc(SC)nc2n1-c1ccc2c(n1)N(CCCC#CCOC1CCCCO1)C(=O)CO2` (centres unmarked) [Compound 10-1-1], the IC50 on Wee1 [1] was 9.9 nM; in assay [2], 490 nM.

Usually IC50 stands for the concentration at which inhibition is half-maximal. A high value points to a need for much substance.
